Columns and labels:
red blood cells (RBCs) [1] = experiment: Localisation of biotin to RBC surface by conjugation with avidin ALEXAFLUOR (fluorescence microscopy); assay type: cell-based; set-up: key to fluorescent signal intensity grade: 1 (low); 2 (moderate); 3 (bright); 4 (very bright); details: for staining at higher concentrations: 100 and 500 μM; for fluorescent signal intensity grade: constructs at concentrations of 10 and 25 μM, avidin ALEXAFLUOR
Method: (§1) The use of aqueous solutions of the construct designated Biotin-S3-S4-S2-chol (III) and the construct designated Biotin-S3-S4-S5-DOPE (IV) in the localisation of biotin (F) to cell surfaces was also compared. Solutions of the two constructs were prepared at substantially equimolar concentrations. The use of the solutions was assessed across a concentration range from 0 to 500 μM (0.5 mM). A 0.5 mM solution of the construct designated Biotin-S3-S4-S2-chol (III) was prepared by dissolving 0.4 mg of the construct in 514 μL of PBS. […] A 0.5 mM stock solution of the construct designated Biotin-S3-S4-S5-DOPE (IV) was prepared by dissolving 2 mg of the construct in 1942 μL of phosphate buffered saline (PBS). Each 0.5 mM solution was warmed to 37° C. for 10 minutes, vortexed and sonicated for 30 seconds to ensure complete dissolution of the construct in the aqueous medium. A dilution series was prepared for each construct to provide a total volume of 100 μL at each of the following concentrations: […]. Equal volumes (40 μL) of packed, washed red blood cells (RBCs) and solutions of constructs at different concentrations were mixed in a glass kimble tube. The tubes were incubated at 37° C. for 20 minutes in a water bath with periodic (3 x) agitation. The incubated cells were washed 3× with PBS before being resuspended in a cell preservative (CELPRESOL™) for storage at 4° C. overnight.
(§2) Two equal volumes were taken from each tube and centrifuged (300×g for 2 minutes) to provide two equivalent packed cells volumes for further evaluation. One of each pair of equivalent packed cell volumes was evaluated for localisation of the biofunctional moiety biotin to the surface of the RBCs by conjugation with avidin ALEXAFLUOR™. One of each pair of the equivalent packed cell volumes was evaluated for localisation of the biofunctional moiety biotin to the surface of the RBCs by conjugation to avidinylated beads (DYNABEADS™ M-280).
Conjugation with avidin ALEXAFLUOR™ was evaluated as described in the publication of Oliver et al (2011). An aliquot containing 0.02 mg avidin ALEXAFLUOR™ was mixed with a volume ([…]) of PBS containing BSA to provide a 0.1 mg/mL solution. Equal volumes 20 μL of packed RBCs and the solution of avidin ALEXAFLUOR™ were mixed and incubated at 37° C. for 30 minutes. The cells were then washed 3× with PBS before placing a drop (10 μL) on a glass microscope slide for fluorescent microscopy (WIB filter at 400× magnification). Cells were graded for fluorescence intensity over two micrograph fields of view. Grades determined via the eye piece were correlated with the corresponding photomicrographs (1.9 sec exposure). Grades were assigned according to the following scale: 1 (low), 2 (moderate), 3 (bright) and 4 (very bright). The morphology of the cells was also recorded (“normal” or “poiked”).

red blood cells (RBCs) [2] = experiment: Localisation of biotin to RBC surface by attachment of avidinylated beads (DYNABEADS M-280); assay type: cell-based
Method: as §1, with “The tubes were incubated at 37° C. for 20 minutes in a water bath with periodic (3 x) agitation. The incubated cells were washed 3× with PBS before being resuspended in a cell preservative (CELPRESOL™) for storage at 4° C. overnight.” left out
as §2
Conjugation with avidinylated beads (DYNABEADS™ M-280) was performed. […] The attachment of beads to cells was scored at 400× and 800× magnification on a compound microscope. An estimate of the number of beads and the presence of cell clusters was recorded for each group and compared with a negative control.

[3] = Dissolution of construct in PBS; assay type: physicochemical; details: 0.5 mM: 0.4 mg in 514 μL of PBS
Method: as §1, with “The incubated cells were washed 3× with PBS before being resuspended in a cell preservative (CELPRESOL™) for storage at 4° C. overnight.” left out

[4] = tested on: O group red blood cells (RBCs); experiment: Serology of kodecytes with monoclonal preparations; assay type: cell-based; set-up: scale not given here; details: kodecytes prepared at 200 μg/mL construct
Method: The use of aqueous solutions of the construct designated Atri-S1-chol (I), the construct designated Atri-S1-S5-DOPE (V) and the construct designated Atri-S1-S5-S4-S5-DOPE (VI) in the localisation of Atri (F) to cell surfaces was also compared. (The constructs designated Atri-S1-S5-DOPE (V) and […] (VI) (FIG. 11) were prepared according to Bovin et al (2005) and Bovin et al (2009)). Volumes (40 μL) of packed, washed O group red blood cells (RBCs) were resuspended in equal volumes of solutions of each of the three constructs at a concentration of 200 μg/mL in PBS. The resuspended RBCs were incubated at room temperature for 4 hours prior to storage at 4° C. overnight. Serology was performed as described by Bovin et al (2005) using a range of monoclonal preparations and sera.

## CC(C)CCC[C@@H](C)[C@H]1CC[C@H]2[C@@H]3CC=C4C[C@@H](OC(=O)NCCCCC(=O)NCC(=O)NCC(=O)N(CC(=O)[O-])CC(=O)NCC(=O)NCC(=O)N(CC(=O)[O-])CC(=O)NCCNC(=O)CN(CC(=O)[O-])C(=O)CNC(=O)CNC(=O)CN(CC(=O)[O-])C(=O)CNC(=O)CNC(=O)CCCC[C@@H]5SC[C@@H]6NC(=O)N[C@@H]65)CC[C@]4(C)[C@H]3CC[C@]12C.[Na+].[Na+].[Na+].[Na+] [Biotin-S3-S4-S2-chol (III)]
Red blood cells (RBCs) [1]
  staining at higher concentrations: poor staining
  fluorescent signal intensity grade: 2
Red blood cells (RBCs) [1]; compared with Biotin-S3-S4-S5-DOPE (IV)
  homogeneity of modification of cell surface: more homogenous modification over the entire cell surface and lesser inter-cell variation
Red blood cells (RBCs) [1]; lower concentration ranges (5 to 75 μM)
  fluorescent signal intensity relative to cells prepared using Biotin-S3-S4-S5-DOPE (IV): moderately lower
Red blood cells (RBCs) [2]
  attachment of avidinylated beads, comparison of the two constructs: comparable results
Red blood cells (RBCs) [2]; 25 μM construct
  number of beads attached to each RBC and clustering of RBCs into groups, relative to the other construct: slightly greater
[3]
  dissolution in PBS: readily dissolved to provide a clear solution

## CCCCCCCC/C=C\CCCCCCCC(=O)OCC(COP(=O)([O-])OCCNC(=O)CCCCC(=O)NCC(=O)NCC(=O)N(CC(=O)[O-])CC(=O)NCC(=O)NCC(=O)N(CC(=O)[O-])CC(=O)NCCNC(=O)CN(CC(=O)[O-])C(=O)CNC(=O)CNC(=O)CN(CC(=O)[O-])C(=O)CNC(=O)CNC(=O)CCCC[C@@H]1SC[C@@H]2NC(=O)N[C@@H]21)OC(=O)CCCCCCC/C=C\CCCCCCCC.[Na+].[Na+].[Na+].[Na+].[Na+] (stereo partly drawn) [Biotin-S3-S4-S5-DOPE (IV), reference compound]
Red blood cells (RBCs) [1]
  staining at higher concentrations: poor staining
  fluorescent signal intensity grade: 2
Red blood cells (RBCs) [2]
  attachment of avidinylated beads, comparison of the two constructs: comparable results

## CC(=O)NC1C(OC2C(O)C(CO)OC(OCCCNC(=O)OC3CCC4(C)C(=CCC5C4CCC4(C)C(C(C)CCCC(C)C)CCC54)C3)C2OC2OC(C)C(O)C(O)C2O)OC(CO)C(O)C1O (stereo not drawn) [I]
[4]; Anti-A (ABO1) Diagast
  Serology score: 0
[4]; Anti-A ALBAclone
  Serology score: 0
[4]; Anti-A BRG
  Serology score: 0
[4]; Anti-A Biotest
  Serology score: 0
[4]; Anti-A CSL Epiclone
  Serology score: 0
[4]; Anti-A CSL
  Serology score: 0
[4]; Anti-A Diagast
  Serology score: 0
[4]; Anti-A Diagnostics Scotland
  Serology score: 0
[4]; Anti-A Lorne
  Serology score: 0
[4]; Anti-A Ortho-BioClone
  Serology score: 0
[4]; Anti-A Span
  Serology score: 0
[4]; Anti-A ortho
  Serology score: 0
[4]; Anti-A, B CSL
  Serology score: 0
[4]; Anti-A, B Diagast
  Serology score: 0
[4]; Anti-A, B Diagnostics Scotland
  Serology score: 0
[4]; Anti-A/B ALBAclone
  Serology score: 0
[4]; Anti-A/B CSL Epiclone
  Serology score: 0
[4]; Anti-A/B Dominion (Novaclone)
  Serology score: 0
[4]; Anti-B (ABO2) Diagast
  Serology score: 0
[4]; Anti-B ALBAclone
  Serology score: 0
[4]; Anti-B Biotec
  Serology score: 0
[4]; Anti-B CSL Epiclone
  Serology score: 0
[4]; Anti-B CSL
  Serology score: 0
[4]; Anti-B Diagast
  Serology score: 0
[4]; Anti-B Diagnostics Scotland
  Serology score: 0
[4]; Anti-B Dominion (Novaclone)
  Serology score: 0
[4]; Anti-B Gama
  Serology score: 0
[4]; Anti-B Immucor
  Serology score: 0
[4]; Anti-B Millipore
  Serology score: 0
[4]; Anti-B Ortho-BioClone
  Serology score: 0
[4]; Anti-B Ortho-MoltenClone
  Serology score: 0
[4]; Anti-B Span
  Serology score: 0
[4]; Anti-B ortho
  Serology score: 0
[4]; Diagast Anti-A/B (ABO3)
  Serology score: 0

## CCCCCCCCC=CCCCCCCCC(=O)OCC(COP(=O)([O-])OCCNC(=O)CCCCC(=O)NCCCOC1OC(CO)C(O)C(OC2OC(CO)C(O)C(O)C2NC(C)=O)C1OC1OC(C)C(O)C(O)C1O)OC(=O)CCCCCCCC=CCCCCCCCC.[Na+] (stereo not drawn) [V, reference compound]
[4]; Anti-A, B Diagast
  Serology score: 0
[4]; Anti-B (ABO2) Diagast
  Serology score: 0
[4]; Anti-B ALBAclone
  Serology score: 0
[4]; Anti-B Biotec
  Serology score: 0
[4]; Anti-B CSL Epiclone
  Serology score: 0
[4]; Anti-B CSL
  Serology score: 0
[4]; Anti-B Diagast
  Serology score: 0
[4]; Anti-B Diagnostics Scotland
  Serology score: 0
[4]; Anti-B Dominion (Novaclone)
  Serology score: 0
[4]; Anti-B Gama
  Serology score: 0
[4]; Anti-B Immucor
  Serology score: 0
[4]; Anti-B Millipore
  Serology score: 0
[4]; Anti-B Ortho-BioClone
  Serology score: 0
[4]; Anti-B Ortho-MoltenClone
  Serology score: 0
[4]; Anti-B Span
  Serology score: 0
[4]; Anti-B ortho
  Serology score: 0

## CCCCCCCC/C=C\CCCCCCCC(=O)OCC(COP(=O)([O-])OCCNC(=O)CCCCC(=O)NCC(=O)NCC(=O)N(CC(=O)[O-])CC(=O)NCC(=O)NCC(=O)N(CC(=O)[O-])CC(=O)NCCNC(=O)CN(CC(=O)[O-])C(=O)CNC(=O)CNC(=O)CN(CC(=O)[O-])C(=O)CNC(=O)CNC(=O)CCCCC(=O)NCCCO[C@@H]1O[C@H](CO)[C@H](O)[C@H](O[C@H]2O[C@H](CO)[C@H](O)[C@H](O)[C@H]2NC(C)=O)[C@H]1O[C@@H]1O[C@@H](C)[C@@H](O)[C@@H](O)[C@@H]1O)OC(=O)CCCCCCC/C=C\CCCCCCCC.[Na+].[Na+].[Na+].[Na+].[Na+] (stereo partly drawn) [VI, reference compound]
[4]; Anti-B (ABO2) Diagast
  Serology score: 0
[4]; Anti-B ALBAclone
  Serology score: 0
[4]; Anti-B Biotec
  Serology score: 0
[4]; Anti-B CSL Epiclone
  Serology score: 0
[4]; Anti-B CSL
  Serology score: 0
[4]; Anti-B Diagast
  Serology score: 0
[4]; Anti-B Diagnostics Scotland
  Serology score: 0
[4]; Anti-B Dominion (Novaclone)
  Serology score: 0
[4]; Anti-B Gama
  Serology score: 0
[4]; Anti-B Immucor
  Serology score: 0
[4]; Anti-B Millipore
  Serology score: 0
[4]; Anti-B Ortho-BioClone
  Serology score: 0
[4]; Anti-B Ortho-MoltenClone
  Serology score: 0
[4]; Anti-B Span
  Serology score: 0
[4]; Anti-B ortho
  Serology score: 0

Reference: patent US20140004499A1, “BIOSURFACE ENGINEERING” (priority 2011, published 2014)
